The results in this text go back to patent US20220354911A1, “TREATMENT OF TUMORS BY A COMBINATION OF AN ONCOLYTIC ADENOVIRUS, A CDK4/6 INHIBITOR AND A FURTHER THERAPEUTICALLY ACTIVE AGENT” (KLINIKUM RECHTS DER ISAR DER TECHNISCHEN UNIVERSITÄT MÜNCHEN, priority 2019, published 2022).

One experiment relates to T24 cells. As to the kind of experiment: Potency assay (SRB), XVir-N-31, Palbociclib and JQ-1. It is filed as cell-based, human. Here is the method:
5000 T24 cells were seeded in 12 well plates and grown in 1 ml RPMI-Medium containing 10% FCS. Next day cells were treated with 500 nM Palbociclib and 300 nM JQ-1. 24 hours post treatment cells were infected with indicated MOIs of XVir-N-31 in 200 μl RPMI-Medium containing no FCS. After 1 hour 800 μl RPMI-Medium containing 10% FCS were added into each well. In addition, 500 nM Palbociclib and 300 nM JQ-1 were added to the medium. SRB-Staining took place 5 days post infection. Mock treated cells were set 100% cell survival.

For another experiment, the system named is SK-N-MC cells. As to the kind of experiment: Potency assay (SRB), XVir-N-31, Abemaciclib and JQ-1. It is filed as cell-based. As to conditions: CDK 4/6 (Abemaciclib) resistant SK-N-MC cells, 200 nM Abemaciclib + 500 nM JQ-1, XVir-N-31, 5 days post infection. As to the method: 100,000 SK-N-MC cells/well were seeded in 12-well plates and grown in RPMI Medium containing 10% FCS at 5% CO2 at 37° C. Cells were treated with 200 nM Abemaciclib+500 nM JQ-1 24 hours before and again 1 hour post infection by adding appropriate amount to the medium. Infection of XVir-N-31 took place in 500 μl in RPMI Medium without serum. SRB-Staining took place 5 days post infection. Mock treated cells were set 100% cell survival.

Another experiment has as its system LN229 cells. As to the kind of experiment: Western blot of XVir-N-31 infected LN229 cells, LEE011 and JQ1. It is filed as cell-based. Here is the method:
2.5×10^5 LN229 cells were seeded in 10 cm plates in DMEM medium. The following day the cells were treated with 500 nM LEE011 and 200 nM JQ1 or a combination of both. At the next morning the cells were infected with XVir-N-31 at 20 MOI. One hour after infection DMEM Medium containing the inhibitors was added on the cells. After each time point (24, 48, 72 hours) the cells were put on ice, washed twice with ice-cold PBS and 300 μl of SDS Protein Lysis Buffer was added. The cells were transferred to reaction tubes and the DNA sheared with a syringe and a needle and the supernatant transferred for further use after centrifugation. The protein concentration was measured with a BCA assay and samples with 4× Lämmli:DTT 6:1 and a concertation of 20 μg were produced and transferred to a 10% SDS gel. The gel electrophoresis started at 90V and was increased to 150V after the ladder started to separate. The proteins on the gel were blotted to a membrane for 2 hours at 100V and blocked in 5% milk in TBS-T for 1 hour at RT. After washing in TBS-T, the first antibody was added according to the manufacturer's information over night at 4° C. The used antibodies were directed to GAPDH, E1A, DBP, E2F1, Rb, pRb for all time points, and caspase 3 and the full length and cleaved version of PARP additionally for the 72 hours samples. The next day, the washing was repeated and the secondary antibody added for 1 hour at RT. Following the washing, ECL was used to image the chemiluminescence by the ChemiDoc™ MP Imaging System.
(Immunoblotting shows a protein as a band on a membrane.)

Experiment [1] has as its system XVir-N-31. As to the kind of experiment: XVir-N-31 replication in UMUC-3 cells, JQ-1 priming or concurrent treatment (fiber qPCR). As to conditions: UMUC-3, 10 MOI, 100 nM or 500 nM JQ-1, 24 hours post infection. It is filed as cell-based, Mastadenovirus, Type C, Serotype 5. Here is the method:
2.5×10^4 UMUC-3 cells were seeded in 12 well plates in DMEM medium. The following day the cells were treated with JQ-1 (priming) or DMEM medium. At the next morning the cells were infected with 10 MOI XVir-N-31. One hour after infection DMEM Medium containing JQ-1 was added on the cells (concurrent treatment). After each 4 and 24 hours, the cells were washed once with PBS and 200 μl of SDS DNA Lysis Buffer was added. The cells were incubated with Proteinase K for at least 1 hour before undergoing a phenol-chloroform-isoamylalcohol purification. The DNA was diluted in 1×TE buffer and the concentration of the DNA was determined using a Nanodrop. For each sample a solution of 15 ng/μl was prepared and a RT-qPCR using 75 ng of DNA and a GoTaq Master mix. Specific fiber forward and reverse primers were used and for the calculation of the Δ ct value specific Actin primers were used as well. For each sample 3 Fiber and 3 Actin values were measured. The calculation was done in excel and each 24 hours value was calculated based on its 4 hours value (initial viral entry, before replication).

Experiment [2] has as its system XVir-N-31. As to the kind of experiment: Hexon Titer test, particle formation of XVir-N-31 in UMUC-3 cells. In kind it is cell-based, Mastadenovirus, Type C, Serotype 5. Here is the method:
The production of viral particles was analyzed via immunohistochemistry-staining of hexon proteins (Hexon Titer test). Therefor, 2×10^5 adherent HEK293 cells per well were seeded in 24-well plates. Cell cultures samples collected after indicated time-points post infection and indicated co-treatment with JQ-1 were pretreated with three cycles thaw-freeze to release viral particles from cells and then serially diluted. The HEK293 cells were infected in volumes of either 50 μl or 10 μl per sample. The plates were then incubated for 40 h at 37° C. and 10% CO2 before checking for detectable cytopathic effects. The medium was aspirated, and the plates were dried for 5-10 min before fixing the cells by adding ice-cold methanol for 10 min at −20° C. The wells were washed twice with PBS+1% BSA. The primary antibody (goat anti-hexon, 1:500) was added and the plates were incubated for 1 h at 37° C. before washing it twice with PBS+1% BSA. Next, the secondary antibody (Rabbit Anti-Goat HRP conjugate, 1:1000) was added and incubated for 1 h at 37° C. Again, the wells were washed twice with PBS containing 1% BSA before the DAB solution was added. After 30 min incubation, 10 different random fields of view (f.o.v.) per well were counted under the 20× objective of a microscope. Counting iterations were averaged and according to this formula, infectious particles per ml were calculated: […]

Where [3] appears, read: LN229, with XVir-N-31, 48 hours post infection.
Where [4] appears, read: LN229, with XVir-N-31, 72 hours post infection.

Turning to `Cc1sc2c(c1C)C(c1ccc(Cl)cc1)=N[C@@H](CC(=O)OC(C)(C)C)c1nnc(C)n1-2` [JQ-1, thieno-triazolo-1-4-diazepine], the “cell killing of XVir-N-31, JQ-1 monotherapy” value in the experiment on T24 cells (T24, 300 nM JQ-1 alone, 10 and 20 MOI) is listed as “did not increase cell killing”. Also, in the experiment with T24 cells (T24, 500 nM Palbociclib, 300 nM JQ-1, low MOIs, 5 days post infection), the “cell killing capacity of XVir-N-31 in combination with Palbociclib” value was “increased the cell killing capacity”. In addition, the “cell killing on addition of JQ-1” value with SK-N-MC cells was “did not increase cell killing”. Besides, the “viral proteins E1A and DBP” value in the experiment on LN229 cells (LN229, XVir-N-31 MOI 20, 500 nM LEE011 or/and 200 nM JQ-1, 24 hours post infection) is recorded as “increased”; with LN229 cells (LN229, XVir-N-31 MOI 20, 500 nM LEE011 or/and 200 nM JQ-1, 48 hours post infection), “increased”; with LN229 cells (LN229, XVir-N-31 MOI 20, 500 nM LEE011 or/and 200 nM JQ-1, 72 hours post infection) it was “increased”. For the same molecule, the “cellular proteins Rb and pRb” value is “remained inhibited” in the experiment on LN229 cells (LN229, with XVir-N-31, 24 hours post infection) and “remained inhibited” with LN229 cells (setting [3]). In addition, the E2F-1 entry in the experiment on LN229 cells (setting [3]) is recorded as “stabilized”. Besides, the E2F1 result with LN229 cells (setting [4]) was “enhanced”. Also, the “cellular protein Rb” value in the experiment with LN229 cells (setting [4]) was “decreased”. Also, the “presence of cleaved PARP” value in the experiment with LN229 cells (XVir-N-31 infected LN229 cells, 72 hours post infection) was “increased”. Moreover, the “XVir-N-31 replication, concurrent treatment with JQ-1” value with XVir-N-31 [1] is reported as “crucial for dual therapy success”. For the same molecule, in the experiment with XVir-N-31 [1], the “XVir-N-31 replication, priming with JQ-1” value is reported as “no beneficial effect”. For the same molecule, in the experiment on XVir-N-31 [2] (500 nM JQ-1, 39, 49, 62 or 72 hpi), the “particle formation of XVir-N-31” value is listed as “significantly increased”. In the experiment on XVir-N-31 [2] (concurrent treatment with 500 nM JQ-1), the “kinetic of XVir-N-31's particle formation” value is listed as “highly accelerated”.
